# Tested on: HCT116 cells
# Assay: In vitro cytotoxicity measured by the cell colony formation assay
# Format: cell-based
# Details: HCT116 cells, 72 h incubation with drug, colonies counted after 7 days; ID50 = drug concentration producing 50% inhibition of colony formation; read-out: IN VITRO ID 50 (nm) HCT116
# How it was run: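 Colony-forming survival was scored 7 days after a 72 h, 37 °C compound exposure followed by washout into fresh medium.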
row,SMILES,IC50 [nM]
1,CCOC(=O)O[C@H]1C[C@H]2OC[C@@]2(OC(C)=O)C2[C@H](OC(=O)c3ccccc3)[C@]3(O)C[C@H](OC(=O)[C@H](O)[C@@H](NC(=O)OC(C)(C)C)C4CC4)C(C)=C([C@@H](O)C(=O)[C@@]21C)C3(C)C (some centres unmarked) [Compound 5165],< 1
2,CCOC(=O)O[C@H]1C(=O)[C@@]2(C)C([C@H](OC(=O)c3ccccc3)[C@]3(O)C[C@H](OC(=O)[C@H](O)[C@@H](NC(=O)OCC(C)C)c4ccsc4)C(C)=C1C3(C)C)[C@]1(OC(C)=O)CO[C@@H]1C[C@@H]2O (some centres unmarked) [Compound 4924],< 10
3,CCCC(=O)N[C@@H](c1ccco1)[C@@H](O)C(=O)O[C@H]1C[C@@]2(O)[C@@H](OC(=O)c3ccccc3)C3[C@](C)(C(=O)[C@H](OC(=O)OCC)C(=C1C)C2(C)C)[C@@H](O)C[C@H]1OC[C@@]31OC(C)=O (some centres unmarked) [Compound 3929],< 1
4,C/C=C/C(=O)N[C@@H](c1ccco1)[C@@H](O)C(=O)O[C@H]1C[C@@]2(O)[C@@H](OC(=O)c3ccccc3)C3[C@](C)(C(=O)[C@H](O)C(=C1C)C2(C)C)[C@@H](OC(=O)OCC)C[C@H]1OC[C@@]31OC(C)=O (some centres unmarked) [Compound 4818],< 1
5,CCOC(=O)N[C@@H](c1ccco1)[C@@H](O)C(=O)O[C@H]1C[C@@]2(O)[C@@H](OC(=O)c3ccccc3)C3[C@](C)(C(=O)[C@H](OC(=O)OCC)C(=C1C)C2(C)C)[C@@H](O)C[C@H]1OC[C@@]31OC(C)=O (some centres unmarked) [Compound 4020],< 1
6,COC(=O)O[C@H]1C(=O)[C@@]2(C)C([C@H](OC(=O)c3ccccc3)[C@]3(O)C[C@H](OC(=O)[C@H](O)[C@@H](NC(=O)OC(C)(C)C)C(C)C)C(C)=C1C3(C)C)[C@]1(OC(C)=O)CO[C@@H]1C[C@@H]2O (some centres unmarked) [Compound 2060],< 10
7,COC(=O)O[C@H]1C[C@H]2OC[C@@]2(OC(C)=O)C2[C@H](OC(=O)c3ccccc3)[C@]3(O)C[C@H](OC(=O)[C@H](O)[C@@H](NC(=O)OC(C)(C)C)c4ccsc4)C(C)=C([C@@H](O)C(=O)[C@@]21C)C3(C)C (some centres unmarked) [Compound 4474],< 1
8,CCOC(=O)O[C@H]1C[C@H]2OC[C@@]2(OC(C)=O)C2[C@H](OC(=O)c3ccccc3)[C@]3(O)C[C@H](OC(=O)[C@H](O)[C@@H](NC(=O)c4ccco4)c4cccs4)C(C)=C([C@@H](O)C(=O)[C@@]21C)C3(C)C (some centres unmarked) [Compound 4304],< 10
9,CCOC(=O)O[C@H]1C(=O)[C@@]2(C)C([C@H](OC(=O)c3ccccc3)[C@]3(O)C[C@H](OC(=O)[C@H](O)[C@@H](NC(=O)c4ccccc4)c4cccs4)C(C)=C1C3(C)C)[C@]1(OC(C)=O)CO[C@@H]1C[C@@H]2O (some centres unmarked) [Compound 2972],< 10
10,CCOC(=O)O[C@H]1C[C@H]2OC[C@@]2(OC(C)=O)C2[C@H](OC(=O)c3ccccc3)[C@]3(O)C[C@H](OC(=O)[C@H](O)[C@H](C=C(C)C)NC(=O)OCC(C)C)C(C)=C([C@@H](O)C(=O)[C@@]21C)C3(C)C (some centres unmarked) [Compound 4688],< 10

# Same assay, conditions: HCT116 cells, colony formation, 72 h incubation with drug, colonies counted after 7 days; ID50 = drug concentration producing 50% inhibition of colony formation; read-out: IN VITRO ID 50 (nm) HCT116
row,SMILES,IC50 [nM]
1,CCNC(=O)O[C@H]1C(=O)[C@@]2(C)C([C@H](OC(=O)c3ccccc3)[C@]3(O)C[C@H](OC(=O)[C@H](O)[C@@H](NC(=O)OC(C)(C)C)c4ccsc4)C(C)=C1C3(C)C)[C@]1(OC(C)=O)CO[C@@H]1C[C@@H]2O (some centres unmarked) [Compound 2622],< 1
2,CCNC(=O)O[C@H]1C(=O)[C@@]2(C)C([C@H](OC(=O)c3ccccc3)[C@]3(O)C[C@H](OC(=O)[C@H](O)[C@@H](NC(=O)OC(C)(C)C)c4ccco4)C(C)=C1C3(C)C)[C@]1(OC(C)=O)CO[C@@H]1C[C@@H]2O (some centres unmarked) [Compound 2700],< 1

# Same assay, conditions: HCT116 colony formation; 72 h drug incubation, colonies counted after 7 days; Example 5, C-7 ester/C-10 hydroxy taxanes; read-out: IN VITRO ID 50 (nm) HCT116
row,SMILES,IC50 [nM]
1,CCCC(=O)O[C@H]1C[C@H]2OC[C@@]2(OC(C)=O)C2[C@H](OC(=O)c3ccccc3)[C@]3(O)C[C@H](OC(=O)[C@H](O)[C@@H](NC(=O)C=C(C)C)c4cccs4)C(C)=C([C@@H](O)C(=O)[C@@]21C)C3(C)C (some centres unmarked) [Compound 4312],< 1
2,CCC(=O)O[C@H]1C[C@H]2OC[C@@]2(OC(C)=O)C2[C@H](OC(=O)c3ccccc3)[C@]3(O)C[C@H](OC(=O)[C@H](O)[C@@H](NC(=O)c4cccs4)c4ccco4)C(C)=C([C@@H](O)C(=O)[C@@]21C)C3(C)C (some centres unmarked) [Compound 3632],< 1
3,CCC(=O)O[C@H]1C[C@H]2OC[C@@]2(OC(C)=O)C2[C@H](OC(=O)c3ccccc3)[C@]3(O)C[C@H](OC(=O)[C@H](O)[C@@H](NC(=O)c4cccs4)c4cccs4)C(C)=C([C@@H](O)C(=O)[C@@]21C)C3(C)C (some centres unmarked) [Compound 3479],< 1
4,CCC(C)(C)OC(=O)N[C@@H](c1ccco1)[C@@H](O)C(=O)O[C@H]1C[C@@]2(O)[C@@H](OC(=O)c3ccccc3)C3[C@](C)(C(=O)[C@H](O)C(=C1C)C2(C)C)[C@@H](OC(=O)CC(C)C)C[C@H]1OC[C@@]31OC(C)=O (some centres unmarked) [Compound 6282],< 10
5,CCCC(=O)O[C@H]1C[C@H]2OC[C@@]2(OC(C)=O)C2[C@H](OC(=O)c3ccccc3)[C@]3(O)C[C@H](OC(=O)[C@H](O)[C@@H](NC(=O)OCC(C)C)c4cccs4)C(C)=C([C@@H](O)C(=O)[C@@]21C)C3(C)C (some centres unmarked) [Compound 4290],< 10

# Same assay, conditions: HCT116 colony formation; 72 h drug incubation, colonies counted after 7 days; Example 10, C-10 ester/C-7 hydroxy taxanes; read-out: IN VITRO ID 50 (nm) HCT116
row,SMILES,IC50 [nM]
1,CCC(=O)O[C@H]1C(=O)[C@@]2(C)C([C@H](OC(=O)c3ccccc3)[C@]3(O)C[C@H](OC(=O)[C@H](O)[C@@H](NC(=O)c4ccccc4)C4CC4)C(C)=C1C3(C)C)[C@]1(OC(C)=O)CO[C@@H]1C[C@@H]2O (some centres unmarked) [Compound 0706],< 1
2,CC(=O)O[C@@]12CO[C@@H]1C[C@H](O)[C@@]1(C)C(=O)[C@H](OC(=O)C(C)C)C3=C(C)[C@@H](OC(=O)[C@H](O)[C@@H](NC(=O)OC(C)(C)C)c4cccs4)C[C@@](O)([C@@H](OC(=O)c4ccccc4)C12)C3(C)C (some centres unmarked) [Compound 2287],< 1
3,C/C=C/C(=O)O[C@H]1C(=O)[C@@]2(C)C([C@H](OC(=O)c3ccccc3)[C@]3(O)C[C@H](OC(=O)[C@H](O)[C@@H](NC(=O)OC(C)(C)C)c4ccncc4)C(C)=C1C3(C)C)[C@]1(OC(C)=O)CO[C@@H]1C[C@@H]2O (some centres unmarked) [Compound 2366],< 1
4,CCC(=O)O[C@H]1C(=O)[C@@]2(C)C([C@H](OC(=O)c3ccccc3)[C@]3(O)C[C@H](OC(=O)[C@H](O)[C@@H](NC(=O)OC(C)(C)C)c4ccco4)C(C)=C1C3(C)C)[C@]1(OC(C)=O)CO[C@@H]1C[C@@H]2O (some centres unmarked) [Compound 0536],< 1
5,CC(=O)O[C@@]12CO[C@@H]1C[C@H](O)[C@@]1(C)C(=O)[C@H](OC(=O)C(C)C)C3=C(C)[C@@H](OC(=O)[C@H](O)[C@@H](NC(=O)OC(C)(C)C)c4ccc([N+](=O)[O-])cc4)C[C@@](O)([C@@H](OC(=O)c4ccccc4)C12)C3(C)C (some centres unmarked) [Compound 2320],< 1
6,CCC(=O)O[C@H]1C(=O)[C@@]2(C)C([C@H](OC(=O)c3ccccc3)[C@]3(O)C[C@H](OC(=O)[C@H](O)[C@@H](NC(=O)c4ccccc4)c4ccncc4)C(C)=C1C3(C)C)[C@]1(OC(C)=O)CO[C@@H]1C[C@@H]2O (some centres unmarked) [Compound 0659],< 1
7,CCOC(=O)N[C@@H](c1ccco1)[C@@H](O)C(=O)O[C@H]1C[C@@]2(O)[C@@H](OC(=O)c3ccccc3)C3[C@](C)(C(=O)[C@H](OC(=O)CC)C(=C1C)C2(C)C)[C@@H](O)C[C@H]1OC[C@@]31OC(C)=O (some centres unmarked) [Compound 3535],< 1
8,CCC(=O)O[C@H]1C(=O)[C@@]2(C)C([C@H](OC(=O)c3ccccc3)[C@]3(O)C[C@H](OC(=O)[C@H](O)[C@@H](NC(=O)OC(C)(C)C)c4ccc([N+](=O)[O-])cc4)C(C)=C1C3(C)C)[C@]1(OC(C)=O)CO[C@@H]1C[C@@H]2O (some centres unmarked) [Compound 0602],< 1
9,CCC(=O)O[C@H]1C(=O)[C@@]2(C)C([C@H](OC(=O)c3ccccc3)[C@]3(O)C[C@H](OC(=O)[C@H](O)[C@@H](NC(=O)c4ccccc4)c4ccoc4)C(C)=C1C3(C)C)[C@]1(OC(C)=O)CO[C@@H]1C[C@@H]2O (some centres unmarked) [Compound 0670],< 1
10,CCCC(=O)O[C@H]1C(=O)[C@@]2(C)C([C@H](OC(=O)c3ccccc3)[C@]3(O)C[C@H](OC(=O)[C@H](O)[C@@H](NC(=O)c4cccs4)c4ccco4)C(C)=C1C3(C)C)[C@]1(OC(C)=O)CO[C@@H]1C[C@@H]2O (some centres unmarked) [Compound 3656],< 1
11,CCC(=O)O[C@H]1C(=O)[C@@]2(C)C([C@H](OC(=O)c3ccccc3)[C@]3(O)C[C@H](OC(=O)[C@H](O)[C@@H](NC(=O)c4ccccc4)c4ccccc4)C(C)=C1C3(C)C)[C@]1(OC(C)=O)CO[C@@H]1C[C@@H]2O (some centres unmarked) [Compound 0748],< 10
12,CCCC(=O)O[C@H]1C(=O)[C@@]2(C)C([C@H](OC(=O)c3ccccc3)[C@]3(O)C[C@H](OC(=O)[C@H](O)[C@@H](NC(=O)OC(C)C)c4cccs4)C(C)=C1C3(C)C)[C@]1(OC(C)=O)CO[C@@H]1C[C@@H]2O (some centres unmarked) [Compound 3909],< 1

# Same assay, conditions: HCT116 colony formation; 72 h drug incubation, colonies counted after 7 days; Example 15, C-7 substituted acetate/C-10 hydroxy taxanes; read-out: IN VITRO ID 50 (nm) HCT116
row,SMILES,IC50 [nM]
1,COCC(=O)O[C@H]1C[C@H]2OC[C@@]2(OC(C)=O)C2[C@H](OC(=O)c3ccccc3)[C@]3(O)C[C@H](OC(=O)[C@H](O)[C@@H](NC(=O)OC(C)(C)C)c4ccco4)C(C)=C([C@@H](O)C(=O)[C@@]21C)C3(C)C (some centres unmarked) [Compound 5445],< 1

# Same assay, conditions: Homo sapiens, HCT-116; HCT116 colony formation; 72 h drug incubation, colonies counted after 7 days; Example 5, C-7 ester/C-10 hydroxy taxanes; read-out: IN VITRO ID 50 (nm) HCT116
row,SMILES,IC50 [nM]
1,"CC(=O)O[C@H]1C(=O)[C@@]2(C)[C@H]([C@H](OC(=O)c3ccccc3)[C@]3(O)C[C@H](OC(=O)[C@H](O)[C@@H](NC(=O)c4ccccc4)c4ccccc4)C(C)=C1C3(C)C)[C@]1(OC(C)=O)CO[C@@H]1C[C@@H]2O [taxol, paclitaxel, reference compound]",2.1
2,"CC(=O)O[C@@]12CO[C@@H]1C[C@H](O)[C@@]1(C)C(=O)[C@H](O)C3=C(C)[C@@H](OC(=O)[C@H](O)[C@@H](NC(=O)OC(C)(C)C)c4ccccc4)C[C@@](O)([C@@H](OC(=O)c4ccccc4)[C@H]21)C3(C)C [docetaxel, reference compound]",0.6

# From patent US6638973B2, “Taxane formulations” (FSU Research Foundation, Inc., priority 2000, dated 2003)
